Measured values from ChEMBL document CHEMBL1201862, “PubChem BioAssay data set” (2004).
Each block holds one molecule with its values, some of them ahead of it. Calls of active or inactive are those of the source.

How the values were obtained:
[1] = target: Scavenger receptor class B member 1 (Mus musculus, UniProt Q61009); assay: mouse SR-BI DiI-HDL uptake blockers – ldlA[mSR-BI] cells, fluorescence, cherry pick, dose response (AID 493194); assay type: functional, cell-based;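 further: cellular uptake of fluorescent DiI-labeled HDL measured as cell fluorescence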
[2] = HGIII-sPLA2 enzyme inhibition potency – biochemical, QFRET, IC50, dose response (AID 743457);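 further: green fluorescence rise as the enzyme cleaves BODIPY PC-A2 in liposomes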
[3] = off-target signal loss in HeLa-CEM21 co-culture – HeLa F-luc CTL cells, cherry-picked, counter-screen for HIV-1 Env fusion inhibitor project, dose response (AID 652040); assay type: functional, cell-based;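 further: potency for signal decrease marking cytotoxic or nonspecific inhibition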
Cytochrome P450 3A4 = Cytochrome P450 3A4 (Homo sapiens, UniProt P08684);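 further: CYP3A4 tested as one member of a cytochrome P450 panel screen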
Cytochrome P450 2D6 = Cytochrome P450 2D6 (Homo sapiens, UniProt P10635);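 further: CYP2D6 member of a cytochrome P450 panel assay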
Cytochrome P450 2C19 = Cytochrome P450 2C19 (Homo sapiens, UniProt P33261); assay: Cytochrome panel assay with activity outcomes. Panel member name: p450-cyp2c19 Compounds with AC50 equal or less than 10 uM are considered active; assay type: functional
Exodeoxyribonuclease V = Exodeoxyribonuclease V (Escherichia coli (strain K12), UniProt P04993+P07648+P08394); assay: RecBCD inhibition via phage-restricted bacterial growth – absorbance, V66 E. coli, mutant T4 phage, counter-screen for AddAB inhibitor project, dose response (AID 492957); assay type: functional, cell-based, Escherichia coli str. K-12 substr. MG1655
[4] = Counterscreen for AddAB inhibitors: absorbance-based bacterial cell-based high throughput dose response assay for inhibitors of bacterial viability. [Related pubchem assays (depositor defined):AID435030, AID449728, AID449731, AID488942, AID488955, AID488956]; assay type: functional
SUMO-activating enzyme = SUMO-activating enzyme (Homo sapiens, UniProt Q9UBT2); assay: blockers of UBC9-mediated SUMO conjugation – biochemical, AlphaScreen, SUMOylation inhibitor project, confirmation (AID 2018); assay type: functional
Chain of SUMO-activating enzyme (Q9UBE0 whole entry): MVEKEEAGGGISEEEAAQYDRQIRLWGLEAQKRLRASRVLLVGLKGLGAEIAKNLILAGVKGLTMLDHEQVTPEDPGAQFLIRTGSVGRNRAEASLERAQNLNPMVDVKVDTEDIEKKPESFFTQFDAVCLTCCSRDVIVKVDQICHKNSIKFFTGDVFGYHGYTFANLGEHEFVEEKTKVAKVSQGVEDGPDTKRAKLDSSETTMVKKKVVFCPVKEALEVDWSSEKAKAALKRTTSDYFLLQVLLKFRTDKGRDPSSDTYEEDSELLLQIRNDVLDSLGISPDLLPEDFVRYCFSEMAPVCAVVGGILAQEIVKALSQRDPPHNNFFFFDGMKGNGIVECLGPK
Chain of SUMO-activating enzyme (Q9UBT2 whole entry): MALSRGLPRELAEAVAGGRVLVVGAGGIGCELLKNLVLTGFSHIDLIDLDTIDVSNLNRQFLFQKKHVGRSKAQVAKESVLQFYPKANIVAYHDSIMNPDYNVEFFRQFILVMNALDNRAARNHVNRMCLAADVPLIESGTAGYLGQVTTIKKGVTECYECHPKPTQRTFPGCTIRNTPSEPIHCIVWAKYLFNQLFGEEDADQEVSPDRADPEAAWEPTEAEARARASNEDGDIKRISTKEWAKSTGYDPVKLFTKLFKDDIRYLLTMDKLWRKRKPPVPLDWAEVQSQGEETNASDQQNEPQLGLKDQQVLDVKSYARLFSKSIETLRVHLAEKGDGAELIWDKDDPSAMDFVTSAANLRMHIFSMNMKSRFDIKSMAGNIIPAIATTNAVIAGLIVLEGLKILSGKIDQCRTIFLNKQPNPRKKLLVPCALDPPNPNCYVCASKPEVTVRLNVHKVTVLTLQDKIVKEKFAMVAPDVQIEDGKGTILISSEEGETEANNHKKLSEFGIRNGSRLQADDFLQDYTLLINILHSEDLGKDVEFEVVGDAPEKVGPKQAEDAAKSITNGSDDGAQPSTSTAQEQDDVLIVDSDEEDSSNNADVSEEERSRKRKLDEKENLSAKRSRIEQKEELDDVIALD

Chain of Scavenger receptor class B member 1 (Q61009 whole entry): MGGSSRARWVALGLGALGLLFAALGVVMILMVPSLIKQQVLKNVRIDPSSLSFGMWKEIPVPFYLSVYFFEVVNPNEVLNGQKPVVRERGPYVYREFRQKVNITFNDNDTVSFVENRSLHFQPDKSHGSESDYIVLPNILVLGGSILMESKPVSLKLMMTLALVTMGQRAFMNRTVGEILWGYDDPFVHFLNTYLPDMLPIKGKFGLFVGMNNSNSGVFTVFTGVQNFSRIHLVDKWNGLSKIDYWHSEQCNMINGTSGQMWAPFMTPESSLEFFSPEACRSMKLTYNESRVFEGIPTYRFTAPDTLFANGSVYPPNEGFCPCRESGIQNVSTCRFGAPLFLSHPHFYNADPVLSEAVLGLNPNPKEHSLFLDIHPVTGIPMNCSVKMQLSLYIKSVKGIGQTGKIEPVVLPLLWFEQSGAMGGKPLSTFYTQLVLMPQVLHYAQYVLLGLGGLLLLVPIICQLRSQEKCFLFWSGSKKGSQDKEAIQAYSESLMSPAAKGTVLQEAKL
Chain of Exodeoxyribonuclease V (P04993 whole entry): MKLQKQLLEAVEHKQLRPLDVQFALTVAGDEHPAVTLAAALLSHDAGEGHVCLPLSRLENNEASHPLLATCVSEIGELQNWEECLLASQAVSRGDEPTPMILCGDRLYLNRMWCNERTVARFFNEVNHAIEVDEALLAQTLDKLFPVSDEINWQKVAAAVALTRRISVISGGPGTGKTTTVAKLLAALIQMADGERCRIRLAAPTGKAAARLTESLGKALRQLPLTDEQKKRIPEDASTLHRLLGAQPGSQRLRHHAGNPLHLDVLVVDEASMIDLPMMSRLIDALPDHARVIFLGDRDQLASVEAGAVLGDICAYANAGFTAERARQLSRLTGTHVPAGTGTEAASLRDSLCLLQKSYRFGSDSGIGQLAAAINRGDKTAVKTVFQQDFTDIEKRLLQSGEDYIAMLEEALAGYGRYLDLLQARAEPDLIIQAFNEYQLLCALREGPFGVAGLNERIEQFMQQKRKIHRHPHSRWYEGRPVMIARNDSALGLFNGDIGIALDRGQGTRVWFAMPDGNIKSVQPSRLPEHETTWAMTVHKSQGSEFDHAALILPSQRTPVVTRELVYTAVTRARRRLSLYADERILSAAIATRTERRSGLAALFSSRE
Chain of Exodeoxyribonuclease V (P07648 whole entry): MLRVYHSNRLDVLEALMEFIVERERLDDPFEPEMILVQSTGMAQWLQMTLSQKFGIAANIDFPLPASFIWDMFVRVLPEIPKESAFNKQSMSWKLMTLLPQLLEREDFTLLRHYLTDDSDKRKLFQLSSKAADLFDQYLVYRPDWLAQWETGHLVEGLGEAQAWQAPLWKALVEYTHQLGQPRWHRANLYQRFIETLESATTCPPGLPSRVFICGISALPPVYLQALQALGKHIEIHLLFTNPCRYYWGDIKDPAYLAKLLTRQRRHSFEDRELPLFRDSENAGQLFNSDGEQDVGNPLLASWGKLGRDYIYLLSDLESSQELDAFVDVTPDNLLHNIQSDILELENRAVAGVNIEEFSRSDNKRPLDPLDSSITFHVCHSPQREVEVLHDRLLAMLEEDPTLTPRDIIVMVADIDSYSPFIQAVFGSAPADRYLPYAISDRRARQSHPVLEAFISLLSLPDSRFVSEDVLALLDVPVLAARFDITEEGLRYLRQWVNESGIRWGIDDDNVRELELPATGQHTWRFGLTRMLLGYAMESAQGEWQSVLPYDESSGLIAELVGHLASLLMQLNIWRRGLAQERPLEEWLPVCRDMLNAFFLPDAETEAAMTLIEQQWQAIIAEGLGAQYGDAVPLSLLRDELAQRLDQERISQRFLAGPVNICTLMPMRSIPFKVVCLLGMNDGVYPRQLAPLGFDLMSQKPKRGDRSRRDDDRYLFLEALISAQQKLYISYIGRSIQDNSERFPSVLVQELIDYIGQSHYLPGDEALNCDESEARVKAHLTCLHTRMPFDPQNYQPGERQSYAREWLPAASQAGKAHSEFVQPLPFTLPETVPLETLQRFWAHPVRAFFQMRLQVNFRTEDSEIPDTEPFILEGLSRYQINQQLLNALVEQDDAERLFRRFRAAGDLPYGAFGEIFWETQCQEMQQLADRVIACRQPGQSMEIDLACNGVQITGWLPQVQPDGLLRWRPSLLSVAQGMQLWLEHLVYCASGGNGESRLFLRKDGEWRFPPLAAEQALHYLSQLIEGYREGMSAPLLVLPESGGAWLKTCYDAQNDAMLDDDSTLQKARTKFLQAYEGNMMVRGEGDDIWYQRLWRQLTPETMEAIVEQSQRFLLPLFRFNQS
Chain of Exodeoxyribonuclease V (P08394 whole entry): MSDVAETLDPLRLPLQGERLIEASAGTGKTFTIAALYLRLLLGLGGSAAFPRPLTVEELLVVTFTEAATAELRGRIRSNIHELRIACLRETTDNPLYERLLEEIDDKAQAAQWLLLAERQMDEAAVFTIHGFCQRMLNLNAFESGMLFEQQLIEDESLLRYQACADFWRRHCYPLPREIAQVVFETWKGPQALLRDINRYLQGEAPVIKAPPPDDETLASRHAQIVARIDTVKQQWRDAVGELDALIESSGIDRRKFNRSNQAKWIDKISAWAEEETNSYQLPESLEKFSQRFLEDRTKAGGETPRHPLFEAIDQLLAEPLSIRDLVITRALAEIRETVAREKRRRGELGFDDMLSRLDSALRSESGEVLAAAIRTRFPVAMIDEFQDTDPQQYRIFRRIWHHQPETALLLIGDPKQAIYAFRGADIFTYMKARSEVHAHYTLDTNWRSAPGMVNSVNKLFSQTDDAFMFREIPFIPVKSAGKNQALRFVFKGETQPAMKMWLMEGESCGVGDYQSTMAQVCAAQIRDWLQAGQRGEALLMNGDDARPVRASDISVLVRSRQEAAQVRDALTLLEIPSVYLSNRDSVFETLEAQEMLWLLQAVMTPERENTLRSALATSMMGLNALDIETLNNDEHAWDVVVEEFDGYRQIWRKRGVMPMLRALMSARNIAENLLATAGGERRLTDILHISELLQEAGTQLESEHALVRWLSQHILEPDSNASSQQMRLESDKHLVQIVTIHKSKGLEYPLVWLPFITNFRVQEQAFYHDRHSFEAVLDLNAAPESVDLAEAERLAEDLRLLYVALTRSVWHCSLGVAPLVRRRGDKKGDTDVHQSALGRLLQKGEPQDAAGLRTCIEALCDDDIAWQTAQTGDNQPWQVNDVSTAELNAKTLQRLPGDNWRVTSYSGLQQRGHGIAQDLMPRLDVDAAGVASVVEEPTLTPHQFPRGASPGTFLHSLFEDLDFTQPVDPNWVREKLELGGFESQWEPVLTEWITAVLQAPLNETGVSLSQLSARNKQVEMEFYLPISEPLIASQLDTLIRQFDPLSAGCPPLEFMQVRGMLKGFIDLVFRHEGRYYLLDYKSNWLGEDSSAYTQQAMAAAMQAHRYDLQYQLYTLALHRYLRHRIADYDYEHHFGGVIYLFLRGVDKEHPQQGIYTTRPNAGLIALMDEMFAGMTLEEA
Chain of Cytochrome P450 3A4 (P08684 whole entry): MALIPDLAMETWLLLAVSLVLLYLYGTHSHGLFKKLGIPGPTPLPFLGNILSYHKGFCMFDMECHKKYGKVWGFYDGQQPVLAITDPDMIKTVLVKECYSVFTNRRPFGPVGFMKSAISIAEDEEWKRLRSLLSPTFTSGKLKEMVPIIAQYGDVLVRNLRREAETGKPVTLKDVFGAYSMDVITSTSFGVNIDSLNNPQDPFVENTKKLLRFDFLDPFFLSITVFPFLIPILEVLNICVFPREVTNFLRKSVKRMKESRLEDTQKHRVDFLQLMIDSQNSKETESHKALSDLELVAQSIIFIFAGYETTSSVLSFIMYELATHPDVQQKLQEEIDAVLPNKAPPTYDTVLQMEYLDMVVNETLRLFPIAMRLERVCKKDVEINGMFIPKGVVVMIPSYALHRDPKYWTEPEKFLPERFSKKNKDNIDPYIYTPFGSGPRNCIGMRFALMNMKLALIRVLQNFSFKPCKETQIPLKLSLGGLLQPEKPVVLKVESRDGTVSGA

SMILES: COc1ccccc1Nc1nc(-c2c(C)[nH]c3ccccc23)cs1
AC50 [1]: 19.4 µM (active)

SMILES: CCOc1ccc2c(c1)-c1c(ssc1=S)C(C)(C)N2C(=O)c1ccco1
IC50 [2]: 46.2 µM (inactive) | AC50 [1]: 13.7 µM (active) | AC50 [3]: 17.6 µM (active)

SMILES: CCOC(=O)c1cn(CC)c2cc(N3CCSCC3)c(F)cc2c1=O
IC50 (Exodeoxyribonuclease V): > 119 µM (inactive) | IC50 [4]: 63.8 µM (inactive)

Other lines, results leading:

AC50 (Cytochrome P450 3A4): 3.16 µM (inconclusive) | AC50 (Cytochrome P450 2D6): inconclusive | AC50 (Cytochrome P450 2C19): inconclusive
SMILES: C[C@@H]1/C=C\CC(=O)OC[C@H](C)C(=O)N[C@@H](Cc2ccccc2)C(=O)OC1

IC50 (SUMO-activating enzyme): 96.7 µM (active)
SMILES: CCCCOc1ccc(/C=C/C(=O)Nc2ccc(C(N)=O)cc2)cc1
